In publication PMC10296281 (2023):

Assays:
Assay in all cases: bio-layer interferometry, 1:1 local fit
[1] = tested on: Sequence 2 (6 to 80) (DNA, aptamer) CACAGAGGTCAGATGACTTCAGTGAGTTGTCCCACGGTCGGCGAGTCGGTGGTAGCCTATGCGTGCTACCGTGAA; settings: 100 mM NaCl, 5 mM KCl, 2 mM MgCl2, 1 mM CaCl2; 20 mM Tris-HCl, 0.02 Tween 20, pH 7.6; R2 0.973
[2] = tested on: Sequence 9 (1 to 50) (DNA, aptamer) AGCAGCACAGAGGTCAGATGACTTCAGTGAGTTGTCCCACGGTCGGCGAG; settings: 100 mM NaCl, 5 mM KCl, 2 mM MgCl2, 1 mM CaCl2; 20 mM Tris-HCl, 0.02 Tween 20, pH 7.6; R2 0.914
[3] = tested on: Sequence 4 (6 to 75) (DNA, aptamer) CACAGAGGTCAGATGACTTCAGTGAGTTGTCCCACGGTCGGCGAGTCGGTGGTAGCCTATGCGTGCTACC; settings: 100 mM NaCl, 5 mM KCl, 2 mM MgCl2, 1 mM CaCl2; 20 mM Tris-HCl, 0.02 Tween 20, pH 7.6; R2 0.945
[4] = tested on: Sequence 6 (1 to 60) (DNA, aptamer) AGCAGCACAGAGGTCAGATGACTTCAGTGAGTTGTCCCACGGTCGGCGAGTCGGTGGTAG; settings: 100 mM NaCl, 5 mM KCl, 2 mM MgCl2, 1 mM CaCl2; 20 mM Tris-HCl, 0.02 Tween 20, pH 7.6; R2 0.905
[5] = tested on: Sequence 1 (original aptamer, 1 to 80) (DNA, aptamer) AGCAGCACAGAGGTCAGATGACTTCAGTGAGTTGTCCCACGGTCGGCGAGTCGGTGGTAGCCTATGCGTGCTACCGTGAA; settings: 100 mM NaCl, 5 mM KCl, 2 mM MgCl2, 1 mM CaCl2; 20 mM Tris-HCl, 0.02 Tween 20, pH 7.6; R2 0.993
[6] = tested on: Sequence 11 (41 to 80) (DNA, aptamer) GGTCGGCGAGTCGGTGGTAGCCTATGCGTGCTACCGTGAA; settings: 100 mM NaCl, 5 mM KCl, 2 mM MgCl2, 1 mM CaCl2; 20 mM Tris-HCl, 0.02 Tween 20, pH 7.6; R2 0.757
[7] = tested on: Sequence 10 (31 to 50) (DNA, aptamer) GTTGTCCCACGGTCGGCGAG; settings: 100 mM NaCl, 5 mM KCl, 2 mM MgCl2, 1 mM CaCl2; 20 mM Tris-HCl, 0.02 Tween 20, pH 7.6; R2 0.699 (poor fit)
[8] = tested on: Sequence 3 (1 to 75) (DNA, aptamer) AGCAGCACAGAGGTCAGATGACTTCAGTGAGTTGTCCCACGGTCGGCGAGTCGGTGGTAGCCTATGCGTGCTACC; settings: 100 mM NaCl, 5 mM KCl, 2 mM MgCl2, 1 mM CaCl2; 20 mM Tris-HCl, 0.02 Tween 20, pH 7.6; R2 0.946
[9] = tested on: Sequence 8 (31 to 80) (DNA, aptamer) GTTGTCCCACGGTCGGCGAGTCGGTGGTAGCCTATGCGTGCTACCGTGAA; settings: 100 mM NaCl, 5 mM KCl, 2 mM MgCl2, 1 mM CaCl2; 20 mM Tris-HCl, 0.02 Tween 20, pH 7.6; R2 0.853
[10] = tested on: Sequence 7 (21 to 60) (DNA, aptamer) ACTTCAGTGAGTTGTCCCACGGTCGGCGAGTCGGTGGTAG; settings: 100 mM NaCl, 5 mM KCl, 2 mM MgCl2, 1 mM CaCl2; 20 mM Tris-HCl, 0.02 Tween 20, pH 7.6; R2 0.882
[11] = tested on: Sequence 5 (21 to 80) (DNA, aptamer) ACTTCAGTGAGTTGTCCCACGGTCGGCGAGTCGGTGGTAGCCTATGCGTGCTACCGTGAA; settings: 100 mM NaCl, 5 mM KCl, 2 mM MgCl2, 1 mM CaCl2; 20 mM Tris-HCl, 0.02 Tween 20, pH 7.6; R2 0.924

SMILES: O=C(N[C@H](CO)[C@H](O)c1ccc([N+](=O)[O-])cc1)C(Cl)Cl
- Kd [1]: 877 nM
- Kd [2]: 92 nM
- Kd [3]: 661 nM
- Kd [4]: 4014 nM
- Kd [5]: 704 nM
- Kd [6]: 426 nM
- Kd [7]: 3109 nM
- Kd [8]: 645 nM
- Kd [9]: 153 nM
- Kd [10]: 370 nM
- Kd [11]: 1712 nM
